{
  "source": "patent US20100249061A1",
  "about": "“OLIGOSACCHARIDES, PREPARATION METHOD AND USE THEREOF, AND PHARMACEUTICAL COMPOSITIONS CONTAINING SAME” (Aventis Pharma S.A., priority 2004, published 2010)",
  "key": {"[1]": {"target": "T1, heparanase (Homo sapiens, UniProt Q9Y251)", "T1 sequence (Q9Y251 36-543)": "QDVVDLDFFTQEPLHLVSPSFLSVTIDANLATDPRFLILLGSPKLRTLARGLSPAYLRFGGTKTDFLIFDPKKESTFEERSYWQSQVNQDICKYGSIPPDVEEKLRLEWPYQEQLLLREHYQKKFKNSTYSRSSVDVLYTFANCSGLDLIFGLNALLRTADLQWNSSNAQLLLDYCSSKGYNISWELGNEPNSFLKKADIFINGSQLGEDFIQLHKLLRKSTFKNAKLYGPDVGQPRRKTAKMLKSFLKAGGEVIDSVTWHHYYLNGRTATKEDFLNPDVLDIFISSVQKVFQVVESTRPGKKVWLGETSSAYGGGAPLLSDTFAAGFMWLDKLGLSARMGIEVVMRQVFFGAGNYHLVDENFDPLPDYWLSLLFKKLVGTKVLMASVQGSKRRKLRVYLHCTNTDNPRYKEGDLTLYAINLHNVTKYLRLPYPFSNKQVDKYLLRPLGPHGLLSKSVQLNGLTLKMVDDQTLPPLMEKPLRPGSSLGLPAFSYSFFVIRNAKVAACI", "assay": "Heparanase inhibition in an enzymatic system (degradation of fondaparinux, residual anti-factor Xa activity)", "format": "biochemical", "protocol": "The concentration of fondaparinux is determined by virtue of its anti-factor Xa activity.\nThe heparanase is produced by Sanofi-Synthélabo (Labège, France). The reagents for assaying factor Xa are sold by Chromogénix (Montpellier, France).\nIncreasing concentrations of a compound according to the invention, heparanase inhibitor ([…]), are mixed with a fixed concentration of heparanase (for each batch, preliminary experiments make it possible to determine the enzymatic activity sufficient for degradation of 0.45 μg/ml of fondaparinux added). After 5 minutes at 37° C., the mixture is brought into contact with the fondaparinux and left at 37° C. for 1 hour. The reaction is stopped by heating at 95° C. for 5 minutes. The residual fondaparinux concentration is finally measured by adding factor Xa and its specific chromogenic substrate (Ref. S2222).\n50 μl of sodium acetate buffer (0.2 M, pH 4.2) are mixed with 50 μl of fondaparinux (0.45 μg/ml) and 59 μl of a heparanase solution. The mixture is incubated for 1 hour at 37° C. and then for 5 minutes at 95° C. The pH thus goes from 4.2 to 7. 100 μl of the reaction mixture are then mixed with 50 μl of 50 mM Tris buffer containing 175 mM NaCl and 75 mM EDTA, […]. The anti-factor Xa activity of the fondaparinux is measured in the following way:\n100 μl of the solution obtained in step a) are mixed with 100 μl of AT (0.5 μg/ml). The mixture is kept at 37° C. for 2 minutes and 100 μl of factor Xa (7 nkat/ml) are then added. The mixture is kept at 37° C. for 2 minutes and 100 μl of chromogenic substrate (Ref.: S2222) (1 mM) are then added. The mixture is kept at 37° C. for 2 minutes and then 100 μl of acetic acid (50%) are added. The optical density is read at 405 nm. A percentage inhibition is determined relative to the control without inhibitor. A percentage inhibition curve makes it possible to calculate an IC50."}, "[2]": {"target": "ATIII (Homo sapiens, UniProt P01008)", "sequence (P01008 33-464, species assumed)": "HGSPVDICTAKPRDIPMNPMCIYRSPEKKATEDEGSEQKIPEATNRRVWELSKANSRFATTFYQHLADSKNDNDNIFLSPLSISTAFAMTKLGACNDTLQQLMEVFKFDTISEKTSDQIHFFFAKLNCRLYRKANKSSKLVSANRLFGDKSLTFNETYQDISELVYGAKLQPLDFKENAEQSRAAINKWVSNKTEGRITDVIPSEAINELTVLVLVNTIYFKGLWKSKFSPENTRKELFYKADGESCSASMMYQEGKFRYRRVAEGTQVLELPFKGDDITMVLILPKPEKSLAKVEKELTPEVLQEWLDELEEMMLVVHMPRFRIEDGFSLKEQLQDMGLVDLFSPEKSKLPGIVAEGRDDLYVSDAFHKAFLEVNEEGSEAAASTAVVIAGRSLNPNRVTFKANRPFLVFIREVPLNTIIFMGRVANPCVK", "assay": "Affinity for ATIII", "format": "binding"}, "[3]": {"assay": "Anti-thrombotic activity"}, "[4]": {"assay": "Stability in alkaline medium / physicochemical properties", "conditions": "loses 3-O-sulphated terminal glucosamine, converted to pentasaccharide ΔIs-IIaid-GlcA as soon as pH exceeds 8", "protocol": "The depolymerization of the heparin takes place under the following conditions: 3 g of heparin from porcine mucous are dissolved in 30 ml of a solution of 0.2M NaCl, 0.02% BSA, 5 mM Na2HPO4, adjusted to pH 7. The depolymerization temperature is 16° C. 2 IU of heparinase 1 are initially introduced. After 7 days, an additional unit of heparinase 1 is added. After 15 days, the heparin depolymerization is considered to be finished. The reaction is monitored either by analytical […] on a TSK Super SW 2000 column (FIG. 1), or on a CTA-SAX column (FIG. 2a). The enzyme reaction may be considered to be sufficiently advanced when the proportion of oligosaccharides greater than octasaccharide in size is limited and when the two main sulphated hexasaccharides ΔIs-Isid-Isid and ΔIs-Isid-IIsglu in the mixture have been depolymerized to tetrasaccharides. When the enzyme reaction has finished, the solution is filtered through a 0.2 μm membrane and then injected, in 2 stages, onto a GC column filled with Biogel P10 (Bio Rad), in which a 0.2 N NaCl mobile phase circulates (FIG. 3). […] It is therefore very important to slightly acidify (pH between 5 and 6) the entire hexasaccharide fraction."}, "[5]": {"conditions": "Petitou et al., J. Biol. Chem. (1988); sodium salt; cited from earlier work"}, "[6]": {"target": "T2, heparanase isolated from human peripheral blood leukocytes (PMN supernatant) (Homo sapiens, UniProt Q9Y251)", "T2 construct": "The supernatants containing the heparanase are then collected; from tissue; host or cells: human peripheral blood leukocytes (buffy coats) enriched in PMNs; cell supernatant", "T2 sequence (Q9Y251 36-543)": "T1 sequence (Q9Y251 36-543)", "assay": "Heparanase degradation of 35-S-labelled heparan sulphate proteoglycan, gel permeation chromatography and scintillation counting", "format": "biochemical", "excerpt": "Radiolabelled heparin/heparan sulphate (HS) is degraded with heparanases, producing low molecular weight HS fragments which can be measured by gel permeation chromatography (FPLC) and counting of the collected fractions by liquid scintillation.\nA uterine fibroblast cell line was used to prepare heparan sulphate (proteoglycan) labelled with 35-S by metabolic labelling. It has been shown that this cell line produces relatively large amounts of various heparan sulphate proteoglycans (HS-PGs), such as syndecans and glypican (Drzeniek et al., Blood 93:2884-2897, 1999).\nThe labelling is carried out by incubating the cells, with a cell density of approximately 1×10^6 cells/ml, in the presence of 35-S-sulphate at 33 μCi/ml in the tissue culture medium for 24 hours. The supernatants are then collected and a protease inhibitor, PMSF (phenylmethylsulfonyl fluoride) (1 mmol/l), is added. […]\n200 μl of 35-S-labelled heparan sulphate (proteoglycans) adjusted to approximately 2200 cpm/ml (cpm=counts per minute) are incubated at 37° C. for 18 hours with 1 μl of PMN supernatant containing the heparanase. 200 μl of the mixture obtained above are sampled on a TSK 4000 gel permeation chromatography column (FPLC), and the fractions are collected and analyzed by liquid scintillation counting.\nThe degradation was measured according to the following formula: […]\nFor example, the percentage degradation is calculated as follows: the sum of the counts (cpm) in fractions 20-33 of the sample after treatment with the heparanase, minus the background noise count (cpm) (fractions 20-33) of the control sample, is divided by the total counts (fractions 12-33) applied to the column. […] A correction for the sulphatase activity is not necessary since no sulphatase activity could be detected.\nThe following heparanase inhibitors: unfractionated heparin (UF-H) and Hexa Iso ATIII were assayed via the protocol described above at three different concentrations. […] The data are expressed as percentage inhibition of the heparanase activity. […]"}},
  "note": "Where two headings read alike, the source gives them in different places.",
  "data": [
    {"substance": "ΔIs-Is-Is-IIs [(Ie)]", "values": [
      {"measurement": "% inhibition", "setting": "[1]; Concentration 3.00E−5 M", "value": 59.1, "unit": "%"}
    ]},
    {"substance": "ΔIs-IIaid-IIsglu [Hexa Iso ATIII]", "values": [
      {"measurement": "affinity for ATIII", "setting": "[2]", "value": "no affinity for ATIII"},
      {"measurement": "anti-thrombotic activity", "setting": "[3]", "value": "devoid of anti-thrombotic activity"},
      {"measurement": "stability in alkaline medium", "setting": "[4]", "value": "extremely fragile in alkaline medium"},
      {"measurement": "anti-thrombotic activity", "setting": "[5]", "value": "no anti-thrombotic activity"},
      {"measurement": "heparanase-inhibiting activity (conclusion in words)", "setting": "[6]", "value": "strong heparanase-inhibiting activity"},
      {"measurement": "heparanase-inhibiting activity (conclusion in words)", "setting": "[6]; listed as hexasaccharide Iso ATIII", "value": "very good heparanase inhibitor"},
      {"measurement": "dose dependence of heparanase inhibition", "setting": "[6]; three concentrations, FIG. 2 / FIG. 7", "value": "dose-dependant inhibition"},
      {"measurement": "% inhibition", "setting": "[1]; Concentration 3.00E−5 M", "value": 48.5, "unit": "%"}
    ]},
    {"substance": "ΔIs-Is-Is-Ia-IIs [(Ih)]", "values": [
      {"measurement": "% inhibition", "setting": "[1]; Concentration 3.00E−5 M", "value": 55.5, "unit": "%"}
    ]},
    {"substance": "ΔIs-Is-IIa-IIs [(Ic)]", "values": [
      {"measurement": "% inhibition", "setting": "[1]; Concentration 3.00E−6 M", "value": 59.2, "unit": "%"}
    ]},
    {"substance": "ΔIs-Ia-IIs [(Im)]", "values": [
      {"measurement": "% inhibition", "setting": "[1]; Concentration 3.00E−5 M", "value": 54.1, "unit": "%"}
    ]},
    {"substance": "ΔIs-Is-Is-Is-IIs [(Ij)]", "values": [
      {"measurement": "% inhibition", "setting": "[1]; Concentration 3.00E−5 M", "value": 48.4, "unit": "%"}
    ]},
    {"substance": "ΔIs-Is-IIa-IIs [(Ib)]", "values": [
      {"measurement": "% inhibition", "setting": "[1]; Concentration 1.00E−5 M", "value": 59.9, "unit": "%"}
    ]},
    {"substance": "ΔIs-IIa-IIs [(Ia)]", "values": [
      {"measurement": "% inhibition", "setting": "[1]; Concentration 1.00E−4 M", "value": 53.8, "unit": "%"}
    ]},
    {"substance": "ΔIs-Is-Is-IIa-IIs [(If)]", "values": [
      {"measurement": "% inhibition", "setting": "[1]; Concentration 3.00E−6 M", "value": 58.4, "unit": "%"}
    ]},
    {"substance": "ΔIs-Is-Is-IIa-IIs [(Ig)]", "values": [
      {"measurement": "% inhibition", "setting": "[1]; Concentration 1.00E−4 M", "value": 55.8, "unit": "%"}
    ]},
    {"substance": "ΔIs-Is-Ia-IIs [(Id)]", "values": [
      {"measurement": "% inhibition", "setting": "[1]; Concentration 3.00E−5 M", "value": 53.9, "unit": "%"}
    ]}
  ]
}
